Here are results for eleven compounds from PubChem BioAssay (NCI).

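Protocol summary: plate cells (96-well), add compound at 5 concentrations, incubate 48 h, interpolate endpoints linearly. GI50 = concentration required for 50% inhibition of growth. TGI denotes the concentration required for complete inhibition of growth.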 Where only a bound is given, the exact number is not on record here.

Some test systems named below: HCT-116 colon; HS 578T breast; MALME-3M melanoma; NCI-H23 lung; PC-3 prostate; SF-539 CNS; SK-MEL-2 melanoma; SK-MEL-28 melanoma; SK-MEL-5 melanoma; SR leukemia.
What all share (test): NCI anticancer screen, dose series, 48 h

In the case of `COc1ccccc1CNC(=O)/C=C/c1ccc(O)c(O)c1`, the GI50 is 52600 nM with HCT-116 colon; over 100 µM with HS 578T breast; 50300 nM in the assay on MALME-3M melanoma; 77.6 µM with NCI-H23 lung; over 100000 nM in the assay on PC-3 prostate; 22.2 µM in the assay on SF-539 CNS. Also, the GI50 in the assay on SK-MEL-2 melanoma was over 100000 nM; with SK-MEL-28 melanoma, 89000 nM; in the assay with SK-MEL-5 melanoma it was 56800 nM. Further, the TGI in the assay on HCT-116 colon is over 100 µM; with HS 578T breast, over 100 µM; in the assay on MALME-3M melanoma, over 100 µM; with NCI-H23 lung it was over 100 µM; in the assay with PC-3 prostate, over 100 µM; in the assay on SF-539 CNS it was 65.9 µM. Further, the TGI in the assay on SK-MEL-2 melanoma, in the assay with SK-MEL-28 melanoma and in the assay on SK-MEL-5 melanoma was over 100 µM in each case.
Turning to `COc1ccc2c3c1OC1C4(CCC5C(C2)N(CC2CC2)CCC351)OCCO4` (stereo unspecified), the TGI with HCT-116 colon, with HS 578T breast, in the assay on MALME-3M melanoma, in the assay with NCI-H23 lung, with PC-3 prostate and with SK-MEL-2 melanoma was over 100 µM each time. In addition, the TGI in the assay on SK-MEL-28 melanoma, in the assay on SK-MEL-5 melanoma and with SR leukemia was over 100 µM each time.
Regarding `CCSc1nc(N)c(C#N)c(-c2ccc(OC)c(OC)c2)c1C#N`, the GI50 in the assay on HCT-116 colon is 16400 nM; with HS 578T breast it was 13.1 µM; in the assay on NCI-H23 lung, 40.3 µM; in the assay on PC-3 prostate, 10400 nM; with SF-539 CNS, 19 µM; with SK-MEL-2 melanoma, 13300 nM. In addition, the GI50 in the assay on SK-MEL-28 melanoma is over 50000 nM; in the assay on SK-MEL-5 melanoma, 8360 nM; in the assay with SR leukemia, 11.8 µM. In addition, the TGI in the assay on HCT-116 colon was 47.5 µM; in the assay on HS 578T breast, 43.7 µM; in the assay on NCI-H23 lung, over 50 µM; in the assay with PC-3 prostate, over 50 µM; with SF-539 CNS, 40.3 µM; in the assay on SK-MEL-2 melanoma, over 50 µM. In addition, the figures for the TGI in the assay on SK-MEL-28 melanoma, in the assay with SK-MEL-5 melanoma and in the assay with SR leukemia were over 50 µM, 29.5 µM and 37.6 µM, respectively.
Take `Nc1ncc(-c2ccc3ncnc(N4CCc5cc(F)c(Cl)cc54)c3c2)cc1C(F)(F)F`: the GI50 with HCT-116 colon was 2080 nM; in the assay on HS 578T breast, 0.298 µM; in the assay on MALME-3M melanoma it was 1440 nM; in the assay on NCI-H23 lung, 2.93 µM; in the assay with PC-3 prostate it was 1440 nM; with SK-MEL-2 melanoma it was 2840 nM. In addition, the results for the GI50 with SK-MEL-28 melanoma and in the assay on SR leukemia were 2040 nM and 1.67 µM, respectively. Further, the TGI in the assay with HCT-116 colon is over 100 µM; with HS 578T breast, 2.54 µM; in the assay on MALME-3M melanoma, over 100 µM; with NCI-H23 lung, over 100 µM; with PC-3 prostate, over 100 µM; with SK-MEL-2 melanoma it was over 100 µM. For the same compound, the TGI with SK-MEL-28 melanoma and in the assay with SR leukemia was over 100 µM throughout.
On to `Cc1ccc(Nn2c(SCC(=O)Nc3nc(-c4ccccc4)cs3)nc(C)c2C)cc1`, for which the GI50 was 2820 nM with HCT-116 colon; 34.1 µM in the assay on HS 578T breast; 2480 nM with MALME-3M melanoma; 3.42 µM in the assay with NCI-H23 lung; 4.68 µM in the assay on SF-539 CNS; 7580 nM in the assay on SK-MEL-2 melanoma. Moreover, in the assay on SK-MEL-5 melanoma, the GI50 is 2000 nM. Besides, the TGI was 26.5 µM in the assay on HCT-116 colon; over 100 µM with HS 578T breast; 13.6 µM in the assay with MALME-3M melanoma; over 100 µM with NCI-H23 lung; 35.2 µM in the assay with SF-539 CNS; 35.3 µM in the assay with SK-MEL-2 melanoma. Besides, the TGI with SK-MEL-5 melanoma was 5.72 µM.
With `COc1ccccc1C(=O)Nc1ccc(Cl)c(C(=O)OC(C)C)c1`, the TGI is over 95 µM with HCT-116 colon; over 100 µM with HS 578T breast; over 100 µM with MALME-3M melanoma; 28.1 µM in the assay on NCI-H23 lung; over 100 µM with PC-3 prostate; over 100 µM with SF-539 CNS. In addition, the TGI in the assay with SK-MEL-2 melanoma was over 76.8 µM; in the assay with SK-MEL-28 melanoma, over 94.5 µM; in the assay with SK-MEL-5 melanoma it was over 54.8 µM.
As to `COc1ncc(-c2ccc3ncnc(Nc4cccc(Cl)c4)c3c2)cc1NS(C)(=O)=O`, the GI50 in the assay with HCT-116 colon is 2330 nM; in the assay on HS 578T breast, 0.852 µM; in the assay with NCI-H23 lung, 1.62 µM; with PC-3 prostate, 2020 nM; with SF-539 CNS, 2.09 µM; in the assay on SK-MEL-2 melanoma, 2270 nM. The GI50 was 1810 nM in the assay with SK-MEL-28 melanoma, 1370 nM with SK-MEL-5 melanoma and 3.91 µM with SR leukemia. The TGI in the assay with HCT-116 colon came to 10.9 µM; with HS 578T breast, 9.52 µM; in the assay with NCI-H23 lung, 8.69 µM; in the assay on PC-3 prostate, 16.6 µM; with SF-539 CNS, 9.92 µM; with SK-MEL-2 melanoma it was 8.25 µM. For the same compound, the TGI with SK-MEL-28 melanoma is 41.3 µM; with SK-MEL-5 melanoma it was 3.22 µM; in the assay with SR leukemia it was over 100 µM.
As for `C=C(C)C1Cc2cc(C(C)=O)ccc2O1` (stereo unspecified), the TGI in the assay with HCT-116 colon, in the assay on HS 578T breast, in the assay with MALME-3M melanoma, in the assay with NCI-H23 lung, with PC-3 prostate and in the assay with SF-539 CNS was over 100 µM in each case. Besides, the TGI in the assay on SK-MEL-2 melanoma, in the assay on SK-MEL-28 melanoma and in the assay on SK-MEL-5 melanoma was over 100 µM throughout.
Take `CC(NNC(=S)N1CCN(c2ccccn2)CC1)c1cccc[n+]1[O-]` (stereo unspecified): the TGI is 13.7 µM in the assay with HCT-116 colon; over 100 µM in the assay with HS 578T breast; over 100 µM with NCI-H23 lung; over 100 µM with PC-3 prostate; 84.2 µM in the assay on SF-539 CNS; over 100 µM in the assay with SK-MEL-28 melanoma. Besides, the TGI with SK-MEL-5 melanoma was 34.8 µM; in the assay with SR leukemia, 96.1 µM.
`O=C(O)c1ccccc1C(=O)Nc1cc2c(cc1Br)-c1ccccc1C2=O`: the TGI in the assay on HCT-116 colon, with HS 578T breast, with MALME-3M melanoma, with NCI-H23 lung, with PC-3 prostate and with SF-539 CNS was over 100 µM throughout. For the same compound, the TGI with SK-MEL-2 melanoma, in the assay with SK-MEL-28 melanoma and with SK-MEL-5 melanoma was over 100 µM in each case.
As to `CCC1C[N+]2=C(c3cc(OC)c(OC)cc3CC2)c2c1cc1n2CCc2cc(OC)c(OC)cc2-1` (stereo unspecified), the GI50 in the assay with HCT-116 colon is 2890 nM; in the assay on HS 578T breast, 4.1 µM; in the assay with NCI-H23 lung, 2.77 µM; in the assay with PC-3 prostate, 2500 nM; with SF-539 CNS, 3.34 µM; in the assay on SK-MEL-2 melanoma it was 2670 nM. Moreover, the GI50 with SK-MEL-28 melanoma was 1930 nM; in the assay on SK-MEL-5 melanoma, 1260 nM; with SR leukemia, 3.1 µM. For the same compound, the TGI was 13.1 µM with HCT-116 colon; over 100 µM in the assay with HS 578T breast; 18.7 µM in the assay on NCI-H23 lung; 33.1 µM in the assay with PC-3 prostate; 14.9 µM in the assay on SF-539 CNS; 7.31 µM in the assay on SK-MEL-2 melanoma. The results for the TGI in the assay on SK-MEL-28 melanoma, in the assay on SK-MEL-5 melanoma and in the assay with SR leukemia were 10.1 µM, 2.61 µM and over 100 µM, respectively.
